Assays:
Format in all cases: in vivo
[1] = system: ragweed (common ragweed, Ambrosia elatior); assay: Test A preemergence, visual injury rating; settings: 0 to 100 scale (0 no effect, 100 complete control)
Procedure, shortened: (§1)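 Visual injury scored 0–100 (100 = complete control) against untreated controls about 10 days after treatment in a greenhouse. Test chemicals, formulated with surfactant in non-phytotoxic solvent, were sprayed on soil preemergence or on 2-10 cm, one- to two-leaf plants postemergence.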

kochia (Kochia scoparia) [2] = assay: Test A preemergence, visual injury rating; settings: 0 to 100 scale (0 no effect, 100 complete control)
Procedure, shortened: as §1

[3] = system: giant foxtail (Setaria faberii); assay: Test A preemergence, visual injury rating; settings: 0 to 100 scale (0 no effect, 100 complete control)
Procedure, shortened: as §1

[4] = system: pigweed (Amaranthus retroflexus); assay: Test A preemergence, visual injury rating; settings: 0 to 100 scale (0 no effect, 100 complete control)
Procedure, shortened: as §1

[5] = system: Italian ryegrass (Lolium multiflorum); assay: Test A preemergence, visual injury rating; settings: 0 to 100 scale (0 no effect, 100 complete control)
Procedure, shortened: as §1

[6] = system: barnyardgrass (Echinochloa crus-galli); assay: Test A preemergence, visual injury rating; settings: 0 to 100 scale (0 no effect, 100 complete control)
Procedure, shortened: as §1

[7] = system: barnyardgrass (Echinochloa crus-galli); assay: Test B flooded paddy test, plant response rating; settings: 250 g ai/ha; Flood; scale of 0 to 100 where 0 is no effect and 100 is complete control; 13 to 15 days
Procedure, shortened: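 Pots were flooded to 3 cm above the soil surface at treatment, compound applied directly to the paddy water, and that depth held throughout. Plants were kept in a greenhouse for 13 to 15 days, then visually rated against untreated controls.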

kochia (Kochia scoparia) [8] = assay: Test C postemergence, plant response rating; settings: for Kochia plant response rating: scale 0 to 100 (0 no effect, 100 complete control)
Procedure, shortened: (§2)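 Preemergence: seeds sown in loam–sand blend or silt loam and sprayed with test chemicals in a non-phytotoxic surfactant-containing solvent. Postemergence: potted plants at 2–18 cm (1–4-leaf stage) sprayed with the same formulation. After 13–15 d in greenhouse, visual rating versus controls on 0 (no effect) to 100 (complete control) scale.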

[9] = system: crabgrass, large (large crabgrass, Digitaria sanguinalis); assay: Test C postemergence, plant response rating; settings: for Crabgrass, Large plant response rating: scale 0 to 100 (0 no effect, 100 complete control)
Procedure, shortened: as §2

[10] = system: wheat (winter wheat, Triticum aestivum); assay: Test C postemergence, plant response rating; settings: for Wheat plant response rating: scale 0 to 100 (0 no effect, 100 complete control)
Procedure, shortened: as §2

[11] = system: morningglory (Ipomoea coccinea); assay: Test C postemergence, plant response rating; settings: for Morningglory plant response rating: scale 0 to 100 (0 no effect, 100 complete control)
Procedure, shortened: as §2

[12] = system: galium (catchweed bedstraw, Galium aparine); assay: Test C postemergence, plant response rating; settings: for Galium plant response rating: scale 0 to 100 (0 no effect, 100 complete control)
Procedure, shortened: as §2

corn (Zea mays) = assay: Test C postemergence, plant response rating; settings: for Corn plant response rating: scale 0 to 100 (0 no effect, 100 complete control)
Procedure, shortened: as §2

[13] = system: nutsedge, yellow (yellow nutsedge, Cyperus esculentus); assay: Test C postemergence, plant response rating; settings: for Nutsedge, Yellow plant response rating: scale 0 to 100 (0 no effect, 100 complete control)
Procedure, shortened: as §2

[14] = system: blackgrass (Alopecurus myosuroides); assay: Test C postemergence, plant response rating; settings: for Plant response rating, Blackgrass: scale 0 to 100; for Blackgrass plant response rating: scale 0 to 100 (0 no effect, 100 complete control)
Procedure, shortened: as §2

[15] = system: oilseed rape (Brassica napus); assay: Test C postemergence, plant response rating; settings: for Oilseed Rape plant response rating: scale 0 to 100 (0 no effect, 100 complete control)
Procedure, shortened: as §2

## CCCCC(=O)c1c(Br)cccc1Oc1ncc(Cl)cn1 [Compound 79]
[1]; 125 g ai/ha
  Ragweed plant response rating: 30
[1]; 500 g ai/ha
  Ragweed plant response rating: 90
Kochia (Kochia scoparia) [2]; 125 g ai/ha
  Kochia plant response rating: 80
Kochia (Kochia scoparia) [2]; 500 g ai/ha
  Kochia plant response rating: 100
[3]; 125 g ai/ha
  Foxtail, Giant plant response rating: 100
[3]; 500 g ai/ha
  Foxtail, Giant plant response rating: 100
[4]; 125 g ai/ha
  Pigweed plant response rating: 100
[4]; 500 g ai/ha
  Pigweed plant response rating: 100
[5]; 125 g ai/ha
  Ryegrass, Italian plant response rating: 90
[5]; 500 g ai/ha
  Ryegrass, Italian plant response rating: 100
[6]; 125 g ai/ha
  Barnyardgrass plant response rating: 100
[6]; 500 g ai/ha
  Barnyardgrass plant response rating: 100
[7]
  Plant response rating, Barnyardgrass: 60
Kochia (Kochia scoparia) [8]; 16 g ai/ha, scale of 0 to 100
  Plant response rating, Kochia: 75
Kochia (Kochia scoparia) [8]; 31 g ai/ha, scale 0 to 100
  Plant response rating, Kochia: 80
Kochia (Kochia scoparia) [8]; 62 g ai/ha
  Kochia plant response rating: 90
Kochia (Kochia scoparia) [8]; 125 g ai/ha
  Kochia plant response rating: 98
[9]; 16 g ai/ha, scale of 0 to 100
  Plant response rating, Crabgrass, Large: 10
[9]; 31 g ai/ha, scale 0 to 100
  Plant response rating, Crabgrass, Large: 25
[9]; 62 g ai/ha
  Crabgrass, Large plant response rating: 70
[9]; 125 g ai/ha
  Crabgrass, Large plant response rating: 65
[10]; 16 g ai/ha, scale of 0 to 100
  Plant response rating, Wheat: 5
[10]; 31 g ai/ha, scale 0 to 100
  Plant response rating, Wheat: 5
[10]; 125 g ai/ha
  Wheat plant response rating: 15
[11]; 16 g ai/ha, scale of 0 to 100
  Plant response rating, Morningglory: 10
[11]; 31 g ai/ha, scale 0 to 100
  Plant response rating, Morningglory: 20
[11]; 62 g ai/ha
  Morningglory plant response rating: 30
[11]; 125 g ai/ha
  Morningglory plant response rating: 30
[12]; 16 g ai/ha, scale of 0 to 100
  Plant response rating, Galium: 75
[12]; 31 g ai/ha, scale 0 to 100
  Plant response rating, Galium: 80
[12]; 62 g ai/ha
  Galium plant response rating: 85
[12]; 125 g ai/ha
  Galium plant response rating: 95
Corn (Zea mays); 16 g ai/ha, scale of 0 to 100
  Plant response rating, Corn: 15
Corn (Zea mays); 31 g ai/ha, scale 0 to 100
  Plant response rating, Corn: 25
Corn (Zea mays); 62 g ai/ha
  Corn plant response rating: 20
Corn (Zea mays); 125 g ai/ha
  Corn plant response rating: 20
[13]; 16 g ai/ha, scale of 0 to 100
  Plant response rating, Nutsedge, Yellow: 0
[13]; 31 g ai/ha, scale 0 to 100
  Plant response rating, Nutsedge, Yellow: 5
[13]; 62 g ai/ha
  Nutsedge, Yellow plant response rating: 5
[13]; 125 g ai/ha
  Nutsedge, Yellow plant response rating: 5
[14]; 16 g ai/ha
  Plant response rating, Blackgrass: 20
[14]; 31 g ai/ha
  Plant response rating, Blackgrass: 10
[14]; 62 g ai/ha
  Blackgrass plant response rating: 20
[14]; 125 g ai/ha
  Blackgrass plant response rating: 30
[15]; 16 g ai/ha, scale of 0 to 100
  Plant response rating, Oilseed Rape: 80
[15]; 31 g ai/ha, scale 0 to 100
  Plant response rating, Oilseed Rape: 98
[15]; 62 g ai/ha
  Oilseed Rape plant response rating: 98
[15]; 125 g ai/ha
  Oilseed Rape plant response rating: 100

## CCCC(=O)c1c(Br)cccc1Oc1ncc(Cl)cn1 [Compound 75]
[1]; 125 g ai/ha
  Ragweed plant response rating: 0
[1]; 500 g ai/ha
  Ragweed plant response rating: 10
Kochia (Kochia scoparia) [2]; 125 g ai/ha
  Kochia plant response rating: 80
Kochia (Kochia scoparia) [2]; 500 g ai/ha
  Kochia plant response rating: 100
[3]; 125 g ai/ha
  Foxtail, Giant plant response rating: 100
[3]; 500 g ai/ha
  Foxtail, Giant plant response rating: 100
[4]; 125 g ai/ha
  Pigweed plant response rating: 100
[4]; 500 g ai/ha
  Pigweed plant response rating: 100
[5]; 125 g ai/ha
  Ryegrass, Italian plant response rating: 80
[5]; 500 g ai/ha
  Ryegrass, Italian plant response rating: 100
[6]; 125 g ai/ha
  Barnyardgrass plant response rating: 100
[6]; 500 g ai/ha
  Barnyardgrass plant response rating: 100
[7]
  Plant response rating, Barnyardgrass: 40
Kochia (Kochia scoparia) [8]; 16 g ai/ha, scale 0 to 100
  Plant response rating, Kochia: 75
Kochia (Kochia scoparia) [8]; 31 g ai/ha, scale 0 to 100
  Plant response rating, Kochia: 85
Kochia (Kochia scoparia) [8]; 62 g ai/ha
  Kochia plant response rating: 90
Kochia (Kochia scoparia) [8]; 125 g ai/ha
  Kochia plant response rating: 98
[9]; 16 g ai/ha, scale 0 to 100
  Plant response rating, Crabgrass, Large: 10
[9]; 31 g ai/ha, scale 0 to 100
  Plant response rating, Crabgrass, Large: 10
[9]; 62 g ai/ha
  Crabgrass, Large plant response rating: 15
[9]; 125 g ai/ha
  Crabgrass, Large plant response rating: 25
[10]; 16 g ai/ha, scale 0 to 100
  Plant response rating, Wheat: 0
[10]; 31 g ai/ha, scale 0 to 100
  Plant response rating, Wheat: 5
[10]; 62 g ai/ha
  Wheat plant response rating: 0
[10]; 125 g ai/ha
  Wheat plant response rating: 10
[11]; 16 g ai/ha, scale 0 to 100
  Plant response rating, Morningglory: 5
[11]; 31 g ai/ha, scale 0 to 100
  Plant response rating, Morningglory: 15
[11]; 62 g ai/ha
  Morningglory plant response rating: 20
[11]; 125 g ai/ha
  Morningglory plant response rating: 65
[12]; 16 g ai/ha, scale 0 to 100
  Plant response rating, Galium: 40
[12]; 31 g ai/ha, scale 0 to 100
  Plant response rating, Galium: 70
[12]; 62 g ai/ha
  Galium plant response rating: 70
[12]; 125 g ai/ha
  Galium plant response rating: 80
Corn (Zea mays); 16 g ai/ha, scale 0 to 100
  Plant response rating, Corn: 10
Corn (Zea mays); 31 g ai/ha, scale 0 to 100
  Plant response rating, Corn: 15
Corn (Zea mays); 62 g ai/ha
  Corn plant response rating: 15
Corn (Zea mays); 125 g ai/ha
  Corn plant response rating: 20
[13]; 16 g ai/ha, scale 0 to 100
  Plant response rating, Nutsedge, Yellow: 0
[13]; 31 g ai/ha, scale 0 to 100
  Plant response rating, Nutsedge, Yellow: 0
[13]; 62 g ai/ha
  Nutsedge, Yellow plant response rating: 0
[13]; 125 g ai/ha
  Nutsedge, Yellow plant response rating: 5
[14]; 16 g ai/ha
  Plant response rating, Blackgrass: 0
[14]; 31 g ai/ha
  Plant response rating, Blackgrass: 5
[14]; 62 g ai/ha
  Blackgrass plant response rating: 10
[14]; 125 g ai/ha
  Blackgrass plant response rating: 30
[15]; 16 g ai/ha, scale 0 to 100
  Plant response rating, Oilseed Rape: 60
[15]; 31 g ai/ha, scale 0 to 100
  Plant response rating, Oilseed Rape: 80
[15]; 62 g ai/ha
  Oilseed Rape plant response rating: 80
[15]; 125 g ai/ha
  Oilseed Rape plant response rating: 95
